Laboratory results: US8138189B2, “Substituted benzene compounds as modulators of the glucocorticoid receptor” (Hoffman-La Roche Inc., priority 2009, dated 2012)

How the values were obtained:
[1] = system: normal volunteers; conditions: acute; cited from earlier work
[2] = system: Cushing's patients; conditions: chronic; cited from earlier work
[3] = system: ob/ob mice; conditions: cited from earlier work
[4] = system: db/db mice; conditions: cited from earlier work
[5] = system: Hypothalamus-Pituitary gland-Adrenal gland (HPA) axis; conditions: cited from earlier work
[6] = target: T1, full length human recombinant glucocorticoid receptor (Homo sapiens, UniProt P04150); assay: Glucocorticoid Receptor Binding Assay (fluorescence polarization competitor assay, Fluormone GS Far Red tracer)
T1 construct: partially purified full length human recombinant glucocorticoid receptor; purchased Panvera/Invitrogen PV4302
T1 sequence (P04150 1-777): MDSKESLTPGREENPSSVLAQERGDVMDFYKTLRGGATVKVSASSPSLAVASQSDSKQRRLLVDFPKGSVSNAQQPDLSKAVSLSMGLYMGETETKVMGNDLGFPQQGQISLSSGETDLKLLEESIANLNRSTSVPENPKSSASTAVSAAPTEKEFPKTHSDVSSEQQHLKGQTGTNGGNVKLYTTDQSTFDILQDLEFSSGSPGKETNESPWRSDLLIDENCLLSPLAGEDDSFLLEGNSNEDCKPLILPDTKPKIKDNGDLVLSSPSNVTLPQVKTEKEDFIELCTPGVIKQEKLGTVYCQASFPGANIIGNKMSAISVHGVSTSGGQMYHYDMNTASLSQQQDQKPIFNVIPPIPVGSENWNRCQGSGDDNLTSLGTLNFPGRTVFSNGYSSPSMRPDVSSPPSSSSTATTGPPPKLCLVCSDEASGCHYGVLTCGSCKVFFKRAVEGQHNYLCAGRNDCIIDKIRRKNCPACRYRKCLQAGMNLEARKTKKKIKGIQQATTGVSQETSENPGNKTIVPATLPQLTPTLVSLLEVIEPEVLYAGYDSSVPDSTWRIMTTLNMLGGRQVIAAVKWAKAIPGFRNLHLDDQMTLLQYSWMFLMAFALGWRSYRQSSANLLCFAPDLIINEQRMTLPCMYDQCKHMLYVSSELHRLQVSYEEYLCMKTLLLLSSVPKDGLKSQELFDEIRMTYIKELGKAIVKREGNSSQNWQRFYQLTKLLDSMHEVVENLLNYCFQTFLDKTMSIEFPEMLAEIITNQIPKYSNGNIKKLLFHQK
Method in brief: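 Partially purified full-length recombinant human GR with a stabilizing coactivator peptide was incubated with Fluormone GS Far Red tracer and serially diluted compound for 3 h at 22 °C in the dark, pH 7.4. Fluorescence polarization was read at 610-660 nm. IC50 came from sigmoidal fitting, and Ki from Cheng-Prusoff.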

Row | Structure (SMILES) | Ki [6] [nM] | further results
1 | CC#C[C@]1(O)CC[C@H]2[C@@H]3CCC4=CC(=O)CCC4=C3[C@@H](c3ccc(N(C)C)cc3)C[C@@]21C [RU486/mifepristone, mifepristone] |  | fasting plasma glucose [1]: decrease of fasting plasma glucose; plasmatic HbA1c [2]: decrease of plasmatic HbA1c; fasting plasma glucose [3]: normalizes fasting plasma glucose; activity of gluconeogenic enzymes [4]: normalizes; effect on HPA axis / endogenous corticosteroids circulating in the blood ([5]; feed-back mechanism): increase of endogenous corticosteroids circulating in the blood; adrenal insufficiency symptoms ([5]; long term treatment (up to 1 year)): induces some adrenal insufficiency symptoms
2 | COC(=O)Cc1ccc(COc2ccc([C@H](C)[C@](O)(c3cnc4ccccc4c3)C(F)(F)F)c(Cl)c2)cc1 (stereo in doubt) [Example 144, {4-[3-Chloro-4-(3,3,3-trifluoro-2-hydroxy-1-methyl-2-quinolin-3-yl-propyl)-phenoxymethyl]-phenyl}-acetic acid methyl ester] | 3.6 | 
3 | Cc1cc([C@@](O)([C@@H](C)c2ccc(Oc3ccc(C(=O)O)cn3)cc2Cl)C(F)(F)F)cn(C)c1=O (racemic) [Example 218, 6-{3-Chloro-4-[2-(1,5-dimethyl-6-oxo-1,6-dihydro-pyridin-3-yl)-3,3,3-trifluoro-2-hydroxy-1-methyl-propyl]-phenoxy}-nicotinic acid] | 1.4 | 
4 | C[C@H](c1ccc(Oc2ccc(C(=O)O)c(Cl)c2)cc1Cl)[C@@](O)(c1ccc2nccnc2c1)C(F)(F)F (stereo in doubt) [Example 228, 2-Chloro-4-[3-chloro-4-(3,3,3-trifluoro-2-hydroxy-1-methyl-2-quinoxalin-6-yl-propyl)-phenoxy]-benzoic acid] | 64.5 | 
5 | CC(c1ccc(Oc2cnc(C(=O)O)cn2)cc1Cl)C(O)(c1ccnc(Cl)c1)C(F)(F)F (centres unmarked) [Example 115, 5-{3-Chloro-4-[2-(2-chloro-pyridin-4-yl)-3,3,3-trifluoro-2-hydroxy-1-methyl-propyl]-phenoxy}-pyrazine-2-carboxylic acid] | 96.8 | 
6 | Cc1cc([C@](O)([C@H](C)c2ccc(Oc3ccc(C(=O)O)c(F)c3)cc2Cl)C(F)(F)F)cn(C)c1=O [Example 249, 4-{3-Chloro-4-[(1R,2R)-2-(1,5-dimethyl-6-oxo-1,6-dihydro-pyridin-3-yl)-3,3,3-trifluoro-2-hydroxy-1-methyl-propyl]-phenoxy}-2-fluoro-benzoic acid] | 4.2 | 
7 | COC(=O)c1cnc(Oc2ccc([C@H](C)[C@](O)(c3cc(C)c(=O)n(C)c3)C(F)(F)F)c(Cl)c2)nc1C(F)(F)F (stereo in doubt) [Example 242, 2-{3-Chloro-4-[2-(1,5-dimethyl-6-oxo-1,6-dihydro-pyridin-3-yl)-3,3,3-trifluoro-2-hydroxy-1-methyl-propyl]-phenoxy}-4-trifluoromethyl-pyrimidine-5-carboxylic acid methyl ester] | 2.7 | 
8 | COC(=O)c1ccc(Oc2ccc([C@H](C)[C@](O)(c3cc(C)c(=O)n(C)c3)C(F)(F)F)c(Cl)c2)cc1F (stereo in doubt) [Example 203, 4-{3-Chloro-4-[2-(1,5-dimethyl-6-oxo-1,6-dihydro-pyridin-3-yl)-3,3,3-trifluoro-2-hydroxy-1-methyl-propyl]-phenoxy}-2-fluoro-benzoic acid methyl ester] | 0.8 | 

More lines, in order of falling Ki [6], values ahead:

Row | Ki [6] [nM] | Structure (SMILES) | further results
9 | 144 | C[C@H](c1ccc(-c2nc(C(=O)O)no2)cc1Cl)[C@@](O)(c1ccnc(Cl)c1)C(F)(F)F (stereo in doubt) [Example 48, 5-{3-Chloro-4-[2-(2-chloro-pyridin-4-yl)-3,3,3-trifluoro-2-hydroxy-1-methyl-propyl]-phenyl}-[1,2,4]oxadiazole-3-carboxylic acid] | 
10 | 24.3 | COC(=O)c1cnc(Oc2ccc([C@@H](C)[C@@](O)(c3ccc(=O)n(C)c3)C(F)(F)F)c(Cl)c2Cl)cn1 (relative stereo) [Example 237, 5-{2,3-Dichloro-4-[3,3,3-trifluoro-2-hydroxy-1-methyl-2-(1-methyl-6-oxo-1,6-dihydro-pyridin-3-yl)-propyl]-phenoxy}-pyrazine-2-carboxylic acid methyl ester] | 
11 | 16.4 | COc1cc(Oc2ccc(C(C)C(O)(c3ccnc(Cl)c3)C(F)(F)F)c(Cl)c2)ccc1C(=O)O (centres unmarked) [Example 86, 4-{3-Chloro-4-[2-(2-chloro-pyridin-4-yl)-3,3,3-trifluoro-2-hydroxy-1-methyl-propyl]-phenoxy}-2-methoxy-benzoic acid] | 
12 | 7.1 | C[C@H](c1ccc(-c2ccc(C(=O)O)c(F)c2)cc1Cl)[C@@](O)(c1cnc2ccccc2c1)C(F)(F)F (stereo in doubt) [Example 225, 3′-Chloro-3-fluoro-4′-(3,3,3-trifluoro-2-hydroxy-1-methyl-2-quinolin-3-yl-propyl)-biphenyl-4-carboxylic acid] | 
13 | 6.6 | COC(=O)C1(c2ccc(COc3ccc([C@H](C)[C@](O)(c4cnc5ccccc5c4)C(F)(F)F)c(Cl)c3)cc2)CC1 (stereo in doubt) [Example 142, 1-{4-[3-Chloro-4-(3,3,3-trifluoro-2-hydroxy-1-methyl-2-quinolin-3-yl-propyl)-phenoxymethyl]-phenyl}-cyclopropanecarboxylic acid methyl ester] | 
14 | 5.5 | C[C@H](c1ccc(COc2ccc(C(=O)O)cn2)cc1Cl)[C@@](O)(c1ccnc(Cl)c1)C(F)(F)F (relative stereo) [Example 127, 6-{3-Chloro-4-[2-(2-chloro-pyridin-4-yl)-3,3,3-trifluoro-2-hydroxy-1-methyl-propyl]-benzyloxy}-nicotinic acid] | 
15 | 2.8 | Cc1cnc([C@](O)([C@H](C)c2ccc(OCc3ccc(C(=O)O)cc3Cl)cc2Cl)C(F)(F)F)cn1 (stereo in doubt) [Example 14, 3-Chloro-4-{3-chloro-4-[3,3,3-trifluoro-2-hydroxy-1-methyl-2-(5-methyl-pyrazin-2-yl)-propyl]-phenoxymethyl}-benzoic acid] | 
